Measurements as given in EP1270568A1, “1-methyl-4-(3-ethoxy-9h-thioxanthene-ylidene)-piperidine and its use as 5-HT2B and/or H1 antagonist” (Biofrontera Pharmaceuticals AG, priority 2001, dated 2003).

Assays:
human 5-HT2B receptor [1] = target: T1, human 5-HT2B receptor (Homo sapiens, UniProt P41595); assay: 5-HT2A, 5-HT2B, 5-HT2C receptor binding methods (counter screen for selectivity); design: expressed in transfected cells; host or cells: HEK293 cells; conditions: HEK293 cells, [3H]-5HT approximately 0.4 nM, 120 min at 4°C; result in words only
T1 sequence (P41595 whole entry): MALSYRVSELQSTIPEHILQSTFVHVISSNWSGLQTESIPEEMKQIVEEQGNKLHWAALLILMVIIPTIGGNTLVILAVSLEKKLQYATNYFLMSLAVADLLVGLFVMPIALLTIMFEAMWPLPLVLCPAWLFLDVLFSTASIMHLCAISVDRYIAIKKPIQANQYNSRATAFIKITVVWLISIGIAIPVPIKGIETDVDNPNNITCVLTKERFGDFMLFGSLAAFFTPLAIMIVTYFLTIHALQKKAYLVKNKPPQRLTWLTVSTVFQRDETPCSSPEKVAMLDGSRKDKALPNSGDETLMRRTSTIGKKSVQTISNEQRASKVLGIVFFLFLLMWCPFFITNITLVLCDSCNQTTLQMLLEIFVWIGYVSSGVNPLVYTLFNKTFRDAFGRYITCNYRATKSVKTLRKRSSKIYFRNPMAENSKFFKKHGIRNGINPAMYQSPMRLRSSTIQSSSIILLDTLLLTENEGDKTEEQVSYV
Experimental: 5-HT2A receptors were labelled with [^3H]ketanserin in human cortex, in HEK293 cells expressing a cloned human 5-HT2A receptor and in HEK293 cells expressing the rat 5-HT2A receptor. For competition binding studies the ligand concentration was approximately 0.1 nM. For saturation binding studies concentrations of radioligand ranged from 0.01 nM to 2.0 nM. Assays were conducted in 0.5 ml of assay buffer (50 mM Tris-HCl, 4 mM calcium chloride, 0.1 % by weight ascorbic acid) (pH 7.4 at 4°C). Non-specifc binding was defined with […] unlabelled ketanserin. After a 60 min incubation at 32°C, membranes were harvested onto filters treated with 0.1 % by weight of polyethylenimine and the bound radioactivity was determined.
Human 5-HT2B receptors were labelled in HEK293 cells as described above. except that the radioligand was [^3H]-5HT and that the assay buffer contained pargyline in a concentration of 10 mM and 0.1 % by weight of ascorbic acid. […]
Competition radioligand binding data was analyzed using a four parameter logistic equation and iterative curve-fitting techniques to obtain estimates of the IC50 and Hill slope. Kd values, determined from saturation binding studies were then used to calculate inhibition dissociation constants (Ki).

human 5-HT2B receptor [2] = target: T1, human 5-HT2B receptor; assay: Cloned human 5-HT2B receptor binding assay ([3H]-5HT); design: expressed in transfected cells; host or cells: HEK 293 cells, transiently transfected; membrane preparation; conditions: HEK 293 cells transiently transfected with human 5-HT2B receptor, [3H]5-HT 4 to 5 nM, 37°C 30 min; result in words only
Experimental: The following describes an in vitro binding assay utilizing cloned 5-HT2B receptors radiolabelled with [^3H]-5HT.
HEK 293 cells transiently transfected with an expression plasmid pXMD1-hu2B encoding the human 5-HT2B receptor (see Schmuck et al., FEBS Lett., 1994, 342, 85-90) were used as described previously (Schmuck et al., Eur. J. Pharmacol., 1996, 8, 959-967). Two days after transfection cells were harvested, pelleted at 500g for 5 min at 4°C, gently resuspended in ice-cold buffer1 (50 mM TRIS pH 7.7, 4 mM CaCl2) and homogenized using a Polytron PT 1200 tissue homogenizer (position 6 for 30 s). Cells were pelleted at 50,000g. 4°C for 10 min, washed with buffer1 and pelleted again. The final pellet was resuspended in incubation buffer (50 mM TRIS pH 7.7, 4 mM CaCl2, 10 µM pargyline and 0.1 % by weight ascorbic acid). The binding assay consisted of 300 µl of membrane suspension (protein concentration = 0.3 to 0.5 mg/ml), 150 µl of competing drug and 50 µl of [^3H]5-HT at a final concentration of 4 to 5 nM. The mixture was incubated at 37°C for 30 min and the assay terminated by rapid filtration and two washing steps with 5 ml of cold 20 mM Tris-HCl pH = 7.5, and 154 mM NaCl over Whatman GFB filters. Filters were counted by liquid scintillation. Non-specific binding was determined in the presence of an excess of 5-HT (100 µM). […] Results are expressed as pKi values. […]

5-HT2B receptor = target: T2, 5-HT2B receptor (Rattus norvegicus, UniProt P30994); assay: 5-HT2B receptor tissue based functional assay in rat stomach fundus longitudinal muscle; format: cell-based; conditions: dextral shift of agonist concentration-response curve, result in words only
T2 construct: Strips of longitudinal muscle were obtained from the stomach fundus of male Sprague Dawley rats; from tissue; host or cells: rat stomach fundus longitudinal muscle strips (male Sprague Dawley)
T2 sequence (P30994 whole entry): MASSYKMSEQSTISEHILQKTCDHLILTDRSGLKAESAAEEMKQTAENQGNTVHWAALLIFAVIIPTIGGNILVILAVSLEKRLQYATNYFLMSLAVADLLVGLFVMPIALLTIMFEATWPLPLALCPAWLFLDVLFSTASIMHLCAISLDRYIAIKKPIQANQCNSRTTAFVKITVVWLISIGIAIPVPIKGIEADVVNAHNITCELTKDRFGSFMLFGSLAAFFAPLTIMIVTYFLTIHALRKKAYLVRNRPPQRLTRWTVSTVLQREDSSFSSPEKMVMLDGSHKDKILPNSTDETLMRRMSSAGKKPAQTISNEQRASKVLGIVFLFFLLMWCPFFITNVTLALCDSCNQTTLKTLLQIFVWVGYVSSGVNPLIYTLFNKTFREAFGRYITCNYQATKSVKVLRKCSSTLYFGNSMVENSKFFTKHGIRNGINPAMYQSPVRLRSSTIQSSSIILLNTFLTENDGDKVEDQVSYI
Experimental: The following describes an in vitro functional assay characterizing 5-HT receptors (the putative 5-HT2B) in rat stomach fundus longitudinal muscle (Baxter et al., Brit. J. Pharmacol. 1994, 112, 323-331).
Strips of longitudinal muscle were obtained from the stomach fundus of male Sprague Dawley rats. The mucosa was removed and the strips were suspended with a resting tension of 1 g in oxygenated (95% O2 /5% CO2) Tyrode solution at 37°C. The composition of the Tyrode solution was as follows (mM): NaCl 136.9; KCl 2.7; NaH2PO4 0.4; MgCl2 1.0; glucose 5.6; NaHCO3 11.9; CaCl2 1.8. […]
Effects of drugs were monitored by tension transducers and recorded on polygraph recorders. Tissue response was measured as changes in isometric tension (g). The mean potency (EC50) and maximum response were evaluated by standard iterative curve fitting procedures.
Effects of antagonists were determined by measuring dextral shifts to the agonist concentration-response curve after equilibration of the antagonists for at least 1 h. Concentration ratios were measured at half maximal response levels and single concentration antagonist affinities were determined by the equation: KB =(antagonist concentration)/(concentration ratio) [formula]

human H1 receptor [3] = target: T3, human H1 receptor (Homo sapiens, UniProt P35367); assay: Cloned human H1, H2, H3 (and H4) receptor binding assay ([3H]-mepyramine for H1); design: expressed in transfected cells; host or cells: COS-7 cells, transiently transfected; cell homogenates; conditions: COS-7 cell homogenates, 1 nM [3H]-mepyramine, 30 min at 25°C; result in words only
T3 sequence (P35367 whole entry): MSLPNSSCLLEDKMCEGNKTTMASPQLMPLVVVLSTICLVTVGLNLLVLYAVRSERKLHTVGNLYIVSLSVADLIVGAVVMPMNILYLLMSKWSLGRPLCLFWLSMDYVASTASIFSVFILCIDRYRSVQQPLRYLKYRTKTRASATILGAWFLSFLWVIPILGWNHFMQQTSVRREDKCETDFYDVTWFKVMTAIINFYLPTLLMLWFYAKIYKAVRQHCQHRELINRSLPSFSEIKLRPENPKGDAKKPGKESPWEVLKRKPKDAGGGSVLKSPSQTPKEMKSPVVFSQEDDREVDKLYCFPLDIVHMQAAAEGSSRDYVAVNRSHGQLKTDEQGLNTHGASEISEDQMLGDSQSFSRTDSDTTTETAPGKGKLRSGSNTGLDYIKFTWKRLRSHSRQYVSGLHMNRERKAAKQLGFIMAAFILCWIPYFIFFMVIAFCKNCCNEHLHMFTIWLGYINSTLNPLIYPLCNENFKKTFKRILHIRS
Experimental: COS-7 cells were transiently transfected with an expression plasmid pCineohH1, pCineohH2, pCineohH3 and pCineohH4 encoding the human Histamine H1, H2 H3 or H4 receptor, respectively. Transfected cells were harvested after 48 h, homogenized in ice-cold 50 mM Na2/potassium phosphate buffer (pH 7.4) and used for radioligand binding studies. Cell homogenates (40 - 50 µg of protein) were incubated for 30 min at 25°C in 50 mM Na2/potassium phosphate buffer (pH 7.4) in 400 µl with the various concentrations of either [^3H]-mepyramine, [^3H]-thiotidine, [^3H]-R-α-Methylhistamine, and [^3H]-pyramilamine for cells expressing recombinant human H1, H2, H3 and H4 receptors, respectively. The nonspecific binding was defined in the presence of 1 µM mianserin. In displacement studies, cell homogenated were incubated either with 1 nM [^3H]-mepyramine, 15 nM [^3H]-thiotidine, 0.5 nM [^3H]-R-α-Methylhistamine, or 15 nM [^3H]-pyramilamine and increasing concentrations of competing ligands. The incubations were stopped by rapid dilution with 3 ml of ice-cold 50 mM Na2/potassium phosphate buffer (pH 7.4). The bound radioactivity was seperated by filatration through Whatman GF/C filters that had been treated with 0.3 % polyethyleneimine. Filters were washed twice in 3 ml of buffer and radioactivity retained on the filters was measured by liquid scinitllation counting. […]

human H1 receptor [4] = target: T3, human H1 receptor; assay: Human histamine H1 receptor functional assay ([3H]-inositol phosphate formation); format: cell-based; design: expressed in transfected cells; conditions: transiently transfected HEK-293 cells, histamine-stimulated [3H]-inositol phosphate formation; result in words only
Experimental: For the measurement of the [^3H]-inositol phosphate formation transiently transfected HEK-293 cells were seeded in 24 well plates and labeled to equilibrium with myo-[2-^3H]-inositol (3 ìCi/ml) for an additional 24 hours in growth medium. The medium was aspirated and cells were washed once with 500 µl HBS-buffer (130 mM NaCl, 900 µM NaH2PO4, 800 µM MgSO4, 5.4 mM KCl, 1.8 mM CaCl2, 25 mM Glucose in 20 mM HEPES pH 7.4). Two min after applying 20 mM Li^+ the cells were stimulated by addition of histamine in HBS-buffer. The incubation was stopped by aspiration off the culture medium and the addition of cold 10 mM formic acid. [^3H]inositol phosphates were isolated by anion exchange chromatography (see Seuwen et al., 1988, EMBO J., 7, 161-168). The pKB value was calculated according to the formula: pKB = log (A'/A - 1) - log [B], where A'/A is the ratio of the agonist concentrations (EC50 in the presence / EC50 in the absence of antagonist) and [B] the concentration of antagonist.

## CCOc1ccc2c(c1)Sc1ccccc1C2=C1CCN(C)CC1 [1-methyl-4-(3-ethoxy-9H-thioxanthene-9-ylidene)-piperidine]
Human 5-HT2B receptor [1]
  affinity for the 5-HT2B receptor: found to have affinity for the 5-HT2B receptor
Human 5-HT2B receptor [2]
  affinity for the 5-HT2B receptor: found to have affinity for the 5-HT2B receptor
5-HT2B receptor
  antagonist at the 5-HT2B receptor: found to be an antagonist at the 5-HT2B receptor
Human H1 receptor [3]
  affinity for the human H1 receptor: found to have affinity for the human H1 receptor
Human H1 receptor [4]
  antagonist at the human H1 receptor: found to be an antagonist at the human H1 receptor
